Assay results taken from patent US9149536B2, “Conjugated antimicrobial agents” (priority 2009, dated 2015).
Converted amounts (≈) assume the structure as drawn. Where two headings read alike, the source gives them in different places.

How the values were obtained:
MRSA ATCC 43300 = experiment: microbe, parasite or virus in culture; format: cell-based, S. aureus; details: for MIC: Staphylococcus aureus, read-out: MIC MRSA ATCC 43300
E. coli R477-100 = experiment: MIC, double-microdilution, E. coli R477-100; format: cell-based, Escherichia coli; details: for MIC: Escherichia coli; for MIC E. coli R477-100: Table 4
E. coli AG100A = experiment: MIC, double-microdilution, E. coli AG100A; format: cell-based, Escherichia coli; details: for MIC: Escherichia coli, AG100A; for MIC E. coli AG100A: Table 4
E. coli AG100B = experiment: MIC, double-microdilution, E. coli AG100B; format: cell-based, Escherichia coli; details: for MIC: Escherichia coli, AG100B; for MIC E. coli AG100B: Table 4
Description: AG100B and AG100A are two kanamycin resistant Escherichia coli strains expressing APH(3′)-I aminoglycoside resistance enzyme.

[1] = tested on: bacterial protein synthesis; experiment: In vitro coupled transcription/translation assay, E. coli S30 extract; format: biochemical; details: luciferase readout
Procedure: Protein translation inhibition by the different compounds was quantified in a coupled transcription/translation assay by using E. coli S30 extracts for circular DNA with the pBEST/uc plasmid (Promega), according to the manufacturer's protocol.
Translation reactions (25 μl) that contained variable concentrations of the tested compound were incubated at 37° C. for 60 minutes, cooled on ice for 5 minutes, and diluted with a dilution reagent (tris-phosphate buffer (25 mM, pH 7.8), DTT (2 mM), 1,2-diaminocyclohexanetetraacetate (2 mM), glycerol (10%), Triton X-100 (1%) and BSA (1 mg/ml)) into 96-well plates. The luminescence was measured immediately after the addition of the Luciferase Assay Reagent (50 μl; Promega), and the light emission was recorded with a Victor3™ Plate Reader (Perkin-Elmer). The concentration of half-maximal inhibition (IC50) was obtained from fitting concentration-response curves to the data of at least two independent experiments by using Grafit 5 software (Leatherbarrow, R. J. Erithacus Software Ltd: Horley, U.K., 2001).
(§1) Relaxation assays were conducted with E. coli TopoIV.

B. subtilis ATCC 6633 [2] = experiment: MIC, double-microdilution, B. subtilis ATCC 6633; format: cell-based; details: for MIC: Bacillus subtilis, ATCC6633
E. coli ATCC 25922 = experiment: MIC, double-microdilution, E. coli ATCC 25922; format: cell-based, Escherichia coli; details: for MIC: Escherichia coli, ATCC25922
E. coli ATCC 35218 = experiment: microbe, parasite or virus in culture; format: cell-based; details: for MIC: Escherichia coli
Procedure: (§2) In parallel, MIC evolution during these subcultures was compared concomitantly with each new generation, using bacteria harvested from control wells (wells cultured without antimicrobial agent from the previous generation). The relative MIC was calculated for each experiment from the ratio of MIC obtained for a given subculture to that obtained for first-time exposure.

B. subtilis ATCC 6633 [3] = experiment: microbe, parasite or virus in culture; format: cell-based; details: for MIC: Bacillus subtilis
Procedure: as §2

E. coli DNA gyrase = E. coli DNA gyrase (Escherichia coli, UniProt P0AES4+P0AES6); details: for IC50 fold superior than that of Cipro in DNA gyrase assay: general statements name DNA gyrase and TopoIV together; for IC50: read-out: DNA gyrase IC50
Chain of E. coli DNA gyrase (P0AES4 whole entry, one chain of several): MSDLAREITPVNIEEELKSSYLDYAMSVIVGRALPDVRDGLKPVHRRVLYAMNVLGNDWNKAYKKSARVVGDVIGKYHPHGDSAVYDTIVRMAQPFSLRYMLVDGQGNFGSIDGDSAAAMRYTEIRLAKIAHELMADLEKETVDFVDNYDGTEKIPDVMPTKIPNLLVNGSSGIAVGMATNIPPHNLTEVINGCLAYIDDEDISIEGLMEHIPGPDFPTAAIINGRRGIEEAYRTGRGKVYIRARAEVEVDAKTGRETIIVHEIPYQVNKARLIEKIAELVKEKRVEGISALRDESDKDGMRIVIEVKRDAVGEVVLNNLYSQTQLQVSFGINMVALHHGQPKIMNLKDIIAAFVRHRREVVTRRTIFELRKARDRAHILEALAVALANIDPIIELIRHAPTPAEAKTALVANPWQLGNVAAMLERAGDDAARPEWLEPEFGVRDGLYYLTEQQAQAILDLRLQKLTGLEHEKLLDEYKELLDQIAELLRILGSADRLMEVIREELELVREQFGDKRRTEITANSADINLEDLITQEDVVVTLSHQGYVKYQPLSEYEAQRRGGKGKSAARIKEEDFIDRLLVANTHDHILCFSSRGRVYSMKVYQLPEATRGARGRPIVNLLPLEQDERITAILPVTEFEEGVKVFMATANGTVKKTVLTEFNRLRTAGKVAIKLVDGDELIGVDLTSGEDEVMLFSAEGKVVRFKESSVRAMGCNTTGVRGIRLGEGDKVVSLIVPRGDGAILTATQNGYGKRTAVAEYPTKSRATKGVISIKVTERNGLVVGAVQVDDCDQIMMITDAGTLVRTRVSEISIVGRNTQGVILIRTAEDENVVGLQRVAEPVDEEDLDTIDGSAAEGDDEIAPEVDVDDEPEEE

E. coli TopoIV = biological target: T1, E. coli TopoIV (Escherichia coli, UniProt P0AFI2+P20083); experiment: TopoIV relaxation assay; format: biochemical
T1 construct: purchased Inspiralis Ltd
T1 sequence (P0AFI2 whole entry): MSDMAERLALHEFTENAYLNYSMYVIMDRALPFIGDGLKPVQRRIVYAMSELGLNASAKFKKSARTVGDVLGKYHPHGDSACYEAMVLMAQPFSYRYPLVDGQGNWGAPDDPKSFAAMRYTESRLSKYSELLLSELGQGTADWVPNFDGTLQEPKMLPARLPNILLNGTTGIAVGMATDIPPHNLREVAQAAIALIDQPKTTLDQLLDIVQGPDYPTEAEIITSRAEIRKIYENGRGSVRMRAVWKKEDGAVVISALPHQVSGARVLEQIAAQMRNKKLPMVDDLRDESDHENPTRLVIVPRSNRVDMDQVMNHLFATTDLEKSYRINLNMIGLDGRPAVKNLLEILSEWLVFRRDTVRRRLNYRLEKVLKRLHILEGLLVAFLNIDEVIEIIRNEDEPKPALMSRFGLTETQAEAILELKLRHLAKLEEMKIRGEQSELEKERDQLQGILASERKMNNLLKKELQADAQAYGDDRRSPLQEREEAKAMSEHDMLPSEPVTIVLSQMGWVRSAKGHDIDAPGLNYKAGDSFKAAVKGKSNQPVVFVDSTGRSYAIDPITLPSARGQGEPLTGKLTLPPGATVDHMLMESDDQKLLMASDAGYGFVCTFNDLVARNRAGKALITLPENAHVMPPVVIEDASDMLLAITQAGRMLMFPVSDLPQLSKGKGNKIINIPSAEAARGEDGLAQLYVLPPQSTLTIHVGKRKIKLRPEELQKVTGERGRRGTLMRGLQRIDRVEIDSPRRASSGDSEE
T1 sequence (P20083 whole entry): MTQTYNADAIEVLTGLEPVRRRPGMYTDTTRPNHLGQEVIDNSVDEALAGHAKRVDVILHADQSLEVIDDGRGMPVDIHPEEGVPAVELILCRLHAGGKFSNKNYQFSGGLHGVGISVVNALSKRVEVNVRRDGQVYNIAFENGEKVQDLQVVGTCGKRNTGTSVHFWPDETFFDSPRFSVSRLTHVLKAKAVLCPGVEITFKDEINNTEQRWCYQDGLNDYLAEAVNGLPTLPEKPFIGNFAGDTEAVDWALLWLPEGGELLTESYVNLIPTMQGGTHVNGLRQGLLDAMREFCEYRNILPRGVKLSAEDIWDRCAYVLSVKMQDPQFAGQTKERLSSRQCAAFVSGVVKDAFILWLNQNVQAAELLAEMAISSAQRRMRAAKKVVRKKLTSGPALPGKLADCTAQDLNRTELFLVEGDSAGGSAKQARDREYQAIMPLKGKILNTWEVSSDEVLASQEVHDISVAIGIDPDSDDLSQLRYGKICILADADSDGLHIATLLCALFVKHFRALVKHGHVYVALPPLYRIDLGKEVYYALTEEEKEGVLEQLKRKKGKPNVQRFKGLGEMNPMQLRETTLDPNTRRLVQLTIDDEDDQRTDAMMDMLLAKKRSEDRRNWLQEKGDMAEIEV
Procedure: DNA relaxation activity was assayed with supercoiled pBR322 DNA as a substrate (Inspiralis Ltd) according to the manufacturer's protocol. The standard reaction mixture (20 μl) contained 40 mM HEPES-KOH pH 7.6, 100 mM potassium glutamate, 10 mM Mg(OAc)2, 10 mM dithiothreitol, 1 mM ATP, 50 μg/ml albumin, 5 ng/μl […] pBR322, and TopoIV protein. The reaction mixture was incubated at 37° C. for 30 minutes, and then was terminated by addition of 2 μl 0.5 M EDTA, 3.5 μl loading dye and 20 μl chloroform/isoamyl alcohol (24:1) mixture. […] One unit of relaxation activity was defined as the amount of TopoIV required to relax 0.1 μg of plasmid in 30 minutes.
as §1

E. coli BL21 = experiment: microbe, parasite or virus in culture; format: cell-based; details: background strain
Procedure: (§3) For this purpose, exemplary conjugates, according to some embodiments of the present invention, were tested against five isogenic E. coli strains. E. coli (pSF815) and E. coli (pET9d) are laboratory resistant strains derived by transformation of E. coli XL1 blue (background strain) with the pSF815 and pET9d plasmids, respectively. […] The last two isogenic strains used were E. coli BL21 (background strain) and E. coli (pETSACG1). […] These three enzymes are among the most prevalent modes of resistance found in aminoglycosides resistance strains.
(§4) The MIC ratios were calculated by dividing the MIC value against resistant strain to that against the respective background strain.

E. coli XL1 blue/pSF815 = experiment: microbe, parasite or virus in culture; format: cell-based
Procedure: as §3, §4

E. coli XL1 blue/pET9d = experiment: microbe, parasite or virus in culture; format: cell-based; details: for MIC ratio XL1 blue/pET9d to XL1 blue: MIC resistant strain divided by MIC background strain
Procedure: as §3, §4

E. coli BL21/pETSACG1 = experiment: microbe, parasite or virus in culture; format: cell-based; details: for MIC ratio BL21/pETSACG1 to BL21: MIC resistant strain divided by MIC background strain
Procedure: as §3, §4

E. coli XL1 blue = experiment: microbe, parasite or virus in culture; format: cell-based; details: background strain
Procedure: as §3, §4

APH(3′)-IIIa enzyme = biological target: T2, APH(3′)-IIIa enzyme (Enterococcus faecalis, UniProt P0A3Y5); format: biochemical; details: compound as substrate of APH(3′)-IIIa
T2 construct: made in house; host or cells: E. coli BL21 carrying pETSACG1 (inferred)
T2 sequence (P0A3Y5 whole entry): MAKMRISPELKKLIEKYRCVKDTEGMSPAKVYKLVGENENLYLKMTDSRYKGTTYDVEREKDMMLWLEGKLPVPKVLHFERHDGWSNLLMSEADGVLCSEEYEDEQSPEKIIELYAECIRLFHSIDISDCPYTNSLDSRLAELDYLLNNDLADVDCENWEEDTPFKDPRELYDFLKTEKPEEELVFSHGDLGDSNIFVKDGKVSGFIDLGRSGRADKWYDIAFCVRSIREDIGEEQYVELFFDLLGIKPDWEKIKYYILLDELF

[4] = R477100, read-out: MIC E. coli R477-100
[5] = read-out: MIC E. coli AG100B, Table 4, kanamycin resistant, APH(3′)-I
[6] = Table 4, read-out: MIC B. subtilis ATCC 6633
[7] = Table 4, read-out: MIC E. coli ATCC 25922
[8] = ATCC35218, read-out: MIC 15th passage, E.coli ATCC 35218
[9] = ATCC6633, read-out: MIC 15th passage, B.subtilis ATCC 6633
[10] = supercoiling assay, relaxed pBR322
[11] = relaxation assay, supercoiled pBR322
[12] = MIC of subculture to MIC upon first exposure

| SMILES | MIC MRSA ATCC 43300 (MRSA ATCC 43300; Table 4) | MIC (E. coli R477-100; [4]) | MIC (E. coli AG100B; [5]) | MIC (B. subtilis ATCC 6633 [2]; [6]) | MIC (E. coli ATCC 25922; [7]) | MIC (E. coli ATCC 35218; [8]) | MIC (B. subtilis ATCC 6633 [3]; [9]) | IC50 fold superior than that of Cipro in DNA gyrase assay (E. coli DNA gyrase) | IC50 (E. coli DNA gyrase; [10]) | MIC E. coli R477-100 (E. coli R477-100) | MIC E. coli AG100A (E. coli AG100A; kanamycin resistant, APH(3′)-I) | MIC E. coli AG100B (E. coli AG100B; kanamycin resistant, APH(3′)-I) | IC50 [1] | IC50 fold superior than Cipro in TopoIV assay (E. coli TopoIV) | IC50 (E. coli TopoIV; [11]) | MIC B. subtilis ATCC 6633 (B. subtilis ATCC 6633 [2]; Table 4) | MIC E. coli ATCC 25922 (E. coli ATCC 25922; Table 4) | MIC ratio XL1 blue/pET9d to XL1 blue (E. coli XL1 blue/pET9d) | MIC ratio BL21/pETSACG1 to BL21 (E. coli BL21/pETSACG1) | other results |
| --- | --- | --- | --- | --- | --- | --- | --- | --- | --- | --- | --- | --- | --- | --- | --- | --- | --- | --- | --- | --- |
| O=C(O)c1cn(C2CC2)c2cc(N3CCNCC3)c(F)cc2c1=O [Cipro, ciprofloxacin, reference compound] | 0.20 µg/mL (≈ 0.604 µM) | 0.02 µg/mL (≈ 0.0604 µM) | 0.05 µg/mL (≈ 0.151 µM) | 0.02 µg/mL (≈ 0.0604 µM) | 0.02 µg/mL (≈ 0.0604 µM) | 0.75 µg/mL (≈ 2.26 µM) | 0.75 µg/mL (≈ 2.26 µM) |  |  |  |  |  |  |  |  |  |  |  |  | MIC (MRSA ATCC 43300; Table 4): 0.2 µg/mL (≈ 0.604 µM); MIC (E. coli R477-100; R477100, read-out: MIC E. Coli R477-100): 0.023 µg/mL (≈ 0.0694 µM); MIC (E. coli AG100A; read-out: MIC E. coli AG100A, Table 6): < 0.003 µg/mL; MIC (E. coli AG100B; read-out: MIC E. coli AG100B, Table 6): 0.06 µg/mL (≈ 0.181 µM); Protein synthesis IC50 [1]: inactive; MIC (B. subtilis ATCC 6633 [2]; Table 6, read-out: MIC Bacillus subtilis): 0.023 µg/mL (≈ 0.0694 µM); MIC (E. coli ATCC 25922; Table 6, read-out: MIC E. coli 25922): 0.023 µg/mL (≈ 0.0694 µM) |
| NCC1OC(OC2C(C(=O)Nc3ccc(-c4cn(CC(O)CN5CCN(c6cc7c(cc6F)c(=O)c(C(=O)O)cn7C6CC6)CC5)nn4)cc3)OC(OC3C(O)C(N)CC(N)C3OC3OC(CN)C(O)C(O)C3N)C2O)C(N)C(O)C1O (stereo not drawn) [Compound 1f, N-(4-(1-(2-hydroxy-3-(ciprofloxacin)propyl)-1H-1,2,3-triazol-4-yl)-5″-phenyl)neomycin carboxamide] | 24 µg/mL (≈ 20.7 µM) |  |  |  |  |  |  | 18 fold | 73 ± 5 nM | 6 µg/mL (≈ 5.18 µM) | 0.75 µg/mL (≈ 0.648 µM) | 6 µg/mL (≈ 5.18 µM) | 2200 ± 600 nM | 19 fold | 580 ± 40 nM | 6 µg/mL (≈ 5.18 µM) | 3 µg/mL (≈ 2.59 µM) |  |  |  |
| NCC1OC(OC2C(COCc3cn(CCN4CCN(c5cc6c(cc5F)c(=O)c(C(=O)O)cn6C5CC5)CC4)nn3)OC(OC3C(O)C(N)CC(N)C3OC3OC(CN)C(O)C(O)C3N)C2O)C(N)C(O)C1O (stereo not drawn) [Compound 1q, 4-((5″-neomycinmethoxy)methyl)-1-(2-(ciprofloxacin)ethyl)-1H-1,2,3-triazole] | 6 µg/mL (≈ 5.7 µM) |  |  |  |  |  |  | 32 fold | 41 ± 9 nM | 3 µg/mL (≈ 2.85 µM) | 0.38 µg/mL (≈ 0.361 µM) | 12 µg/mL (≈ 11.4 µM) | 18100 ± 4900 nM | 1.4 fold | 7900 ± 250 nM | 0.75 µg/mL (≈ 0.712 µM) | 3 µg/mL (≈ 2.85 µM) | 4 | 1 | MIC BL21 (E. coli BL21): 0.2 µg/mL (≈ 0.19 µM); MIC ratio XL1 blue/pSF815 to XL1 blue (E. coli XL1 blue/pSF815; MIC resistant strain divided by MIC background strain): 4; MIC XL1 blue/pSF815 (E. coli XL1 blue/pSF815; expressed enzyme AAC(6′)-APH(2″)): 12 μg/ml; MIC XL1 blue/pET9d (E. coli XL1 blue/pET9d; expressed enzyme APH(3′)-Ia): 12 μg/ml; MIC BL21/pETSACG1 (E. coli BL21/pETSACG1; expressed enzyme APH(3′)-IIIa): 0.2 μg/ml; MIC XL1 blue (E. coli XL1 blue): 3 µg/mL (≈ 2.85 µM); fold more potent than NeoB against E. coli AG100A (E. coli AG100A; from MIC): 253 fold; fold more potent than NeoB against E. coli AG100B (E. coli AG100B; from MIC): 32 fold |
| NC[C@@H]1O[C@H](O[C@H]2[C@@H](O)[C@H](O[C@@H]3[C@@H](O)[C@H](N)C[C@H](N)[C@H]3O[C@H]3O[C@H](CN)[C@@H](O)[C@H](O)[C@H]3N)O[C@@H]2CO)[C@H](N)[C@@H](O)[C@@H]1O [NeoB, neomycin B, reference compound] |  | 24 µg/mL (≈ 39 µM) | 384 µg/mL (≈ 625 µM) | 1.5 µg/mL (≈ 2.44 µM) | 48 µg/mL (≈ 78.1 µM) | 48 µg/mL (≈ 78.1 µM) | 6 µg/mL (≈ 9.76 µM) |  |  |  |  |  | 10500 ± 100 nM |  |  |  |  | 16 | 8 | DNA gyrase IC50 (E. coli DNA gyrase; [10]): inactive; MIC (MRSA ATCC 43300): 384 µg/mL (≈ 625 µM); MIC (E. coli BL21; Escherichia coli, BL21): 6 µg/mL (≈ 9.76 µM); MIC (E. coli XL1 blue/pSF815; Escherichia coli, XL1BLUE/PSF815, read-out: MIC XL1 blue/pSF815): > 384 µg/mL; MIC (E. coli XL1 blue/pET9d; Escherichia coli, XL1BLUE/PET9D, read-out: MIC XL1 blue/pET9d): 96 µg/mL (≈ 156 µM); MIC (E. coli BL21/pETSACG1; Escherichia coli, BL21/PETSACG1, read-out: MIC BL21/pETSACG1): 48 µg/mL (≈ 78.1 µM); MIC (E. coli XL1 blue; Escherichia coli, XL1BLUE, read-out: MIC XL1 blue): 6 µg/mL (≈ 9.76 µM); kcat (APH(3′)-IIIa enzyme): 2.4 ± 0.1 s⁻¹; MIC (E. coli AG100A; read-out: MIC E. coli AG100A, Table 4, kanamycin resistant, APH(3′)-I): 96 µg/mL (≈ 156 µM); TopoIV IC50 (E. coli TopoIV; [11]): inactive; MIC (E. coli ATCC 35218; ATCC35218, read-out: MIC 1st passage, E.coli ATCC 35218): 12 µg/mL (≈ 19.5 µM); Ratio (relative MIC) 15th/1st passage, E.coli ATCC 35218 (E. coli ATCC 35218; [12]): 4; MIC (B. subtilis ATCC 6633 [3]; ATCC6633, read-out: MIC 1st passage, B.subtilis ATCC 6633): 0.75 µg/mL (≈ 1.22 µM); Ratio (relative MIC) 15th/1st passage, B.subtilis ATCC 6633 (B. subtilis ATCC 6633 [3]; [12]): 8 |
